Reference: patent US10577610B2, “EpCAM aptamers and conjugates thereof” (Deakin University, priority 2015, dated 2020)
Like-named read-outs stand apart in the source and are kept apart here. [invdT] = inverted (3'-3') thymidine; {TYE665} = TYE665 fluorescent dye

Experiments:
[1] = 40 nmol/Kg i.v.
Description: NOD/SCID mice received a single i.v. injection of 40 nmol/Kg of transferrin/EpCAM aptamer with four various structures (TEPP: Bi3 transferrin^+/EpCAM^+; TEPN: transferrin^+/EpCAM^−; TENP: transferrin^−/EpCAM^+; TENN: Bi1 transferrin^−/EpCAM^−). The concentration of aptamers, expressed as % of injected dose (ID) per mg of tissue, in tissues indicated was determined at 30 min and 60 min after the agent administration using ELISA. Data are means±SEM (n=3).
To evaluate the advantage of positive transferrin-modified aptamers over their negative transferrin-modified counterparts in brain uptake, the biodistribution of aptamers with four various structures (transferrin+/EpCAM+, transferrin+/EpCAM−, transferrin−/EpCAM+, transferrin−/EpCAM−) were studied at 30 min and 60 min after a single i.v. injection of these agents at a dosage of 40 nmol/Kg into NOD/SCID mice.

[2] = system: HEY cells; assay: Confocal microscopy internalisation into HEY cells; assay type: cell-based, human
Description: Confocal microscopy was used as a means of visualising aptamer internalisation into the cells. Both aptamers and cells were prepared in the same manner as described above before they were mixed and allowed to incubate at 37° C. The aptamers were used at a concentration of 200 nM and were allowed to incubate for 60 minutes. The concentration for the conjugate (bifunctional) aptamers was 400 nM and these were incubated with the cells for 120 minutes. Ten minutes prior to end of incubation, 2 μL of Hoechst nuclear stain (10 mg/mL) was added to cells. Cells were then washed three times with 100 μL of PBS as described above and resuspended in 20 μL (8×10^5 cells/well) in an 8-chambered slide (Lab-Tek II, Nunc) for visualisation. Cells were incubated in blocking buffer for 60 mins followed by resuspension in binding buffer containing the aptamer and incubated for 60 mins at 37° C. Bisbenzimide Hoechst 33342 (3 mg/ml) (Sigma) was added to the cells during the final 10 min of incubation. The aptamer solution was removed and the cells were washed three times for 5 min each in PBS prior to visualisation using a FluoView FV10i laser scanning confocal microscope (Olympus).
As with the anti-TfR single aptamers, it was necessary to ensure that the binding that had been observed could be attributed to cellular internalisation rather than surface attachment. This was done in a similar manner as before. […]

[3] = mouse, in vivo

For “5′-GCGCGGTACCGCGCTAACGGAGGTTGCGTCCGT-3′ (GCGCGGTACCGCGCTAACGGAGGTTGCGTCCGN; listed as DNA, chemistry not given here) [Bi3]”, the “Accumulation in brain, fold higher than transferrin−/EpCAM+” value ([1]; 30 min) was 3.1 fold, the “Accumulation in brain, fold higher than transferrin−/EpCAM−” value ([1]; 30 min) was 12.2 fold and the “Accumulation in brain, fold higher than transferrin−/EpCAM+” value ([1]; 60 min) was 2.5 fold. The “Accumulation in brain, fold higher than transferrin−/EpCAM−” value ([1]; 60 min) was 10.8 fold.

With “Bi1: aptamer conjugate based on TfR1 and scrambled EpCAM binding loop, negative control, SEQ ID NO:8 (GCGCGTGCACGCGCTAACGGATTCCTTTTCCGN; listed as DNA, further chemistry not given here)” the “Internalisation into EpCAM-positive HEY cell line” value ([2]; conjugate aptamers, 400 nM, two hour) was “observed to internalise” and the “Fluorescent signal in dissected brain” value [3] was “no signal”.

For “TfR3: version of TfR1 with scrambled binding loop sequence, SEQ ID NO:6 (DNA GCGTGGTACCACGC; DNA, 5' {TYE665}, 3' [invdT], backbone not given here)”, the “Internalisation of anti-TfR aptamer into HEY cells” value [2] was “not detected”.
